Experimental data taken from patent US20090131513A1, “ANTI-INFLAMMATORY MODALITIES” (Novogen Research Pty Ltd., priority 2005, published 2009).

Tests used:
[1] = Anti inflammatory activity (test not specified)
female BALB/c mice = assay: Absence of gastrointestinal toxicity, gavage for 10 days; format: in vivo; details: 20 mg/kg daily by gavage for 10 days
Description: Compound 2 at 5 mg/kg (n=3) or vehicle (PEG 400:PBS1:1; n=2) was administered via gavage to female BALB/c mice for 10 days. […] Histology of cecum and colon were normal.
The diastereoisomeric mixture of Compounds 3a and 3b in PEG 400:PBS1:1 was administered to 7 week old female BALB/c mice (n=8) by gavage at 20 mg/kg daily for 10 days. There was no vehicle control group for comparison.
Compound 4 at 5 mg/kg (n=3) or vehicle (n=2, PEG:PBS 1:1) was administered via gavage to female BALB/c mice for 10 days. […] Histology of cecum and colon were normal.

[2] = system: contractile response of the aortic ring to noradrenaline; assay: Vasodilatory activity in the rat aortic ring assay; set-up: species or system rat (Sprague-Dawley); details: test compound 1 μg/ml
Description: The vasodilatory capacity of test compounds was examined ex vivo using the rat aortic ring assay.
Male Sprague-Dawley rats (250±50 g) were euthanized with 80% CO2 and 20% O2. The thoracic aorta was excised and quickly mounted in organ-baths as described (Chin-Dusting et al. 2001). Full concentration-contractile curves were obtained to noradrenaline ([…]) with and without test compounds delivered at a concentration of 1 μg/ml. Experiments were repeated in n=5 different rings from 5 different animals. Only one compound at any one concentration was tested on any one ring from any one animal. Sigmoidal dose response curves were fitted for the data and the logEC50 calculated (Prism 4, GraphPad Software). The difference in these values between the presence and absence of test compound was calculated using a two-tailed paired t test. The effects of β-oestrodiol and vehicle alone were examined as a positive and negative control respectively.

TX synthase (TXS) = target: T1, TX synthase (TXS) (Homo sapiens, UniProt P24557); assay: TXB2 synthesis following addition of exogenous PGH2 to U937 cells; format: cell-based; details: 1, 10, 100 μM, undifferentiated U937 cells, PGH2 5 μM
T1 construct: endogenous in cells; host or cells: undifferentiated U937 cells
T1 sequence (P24557 1-533): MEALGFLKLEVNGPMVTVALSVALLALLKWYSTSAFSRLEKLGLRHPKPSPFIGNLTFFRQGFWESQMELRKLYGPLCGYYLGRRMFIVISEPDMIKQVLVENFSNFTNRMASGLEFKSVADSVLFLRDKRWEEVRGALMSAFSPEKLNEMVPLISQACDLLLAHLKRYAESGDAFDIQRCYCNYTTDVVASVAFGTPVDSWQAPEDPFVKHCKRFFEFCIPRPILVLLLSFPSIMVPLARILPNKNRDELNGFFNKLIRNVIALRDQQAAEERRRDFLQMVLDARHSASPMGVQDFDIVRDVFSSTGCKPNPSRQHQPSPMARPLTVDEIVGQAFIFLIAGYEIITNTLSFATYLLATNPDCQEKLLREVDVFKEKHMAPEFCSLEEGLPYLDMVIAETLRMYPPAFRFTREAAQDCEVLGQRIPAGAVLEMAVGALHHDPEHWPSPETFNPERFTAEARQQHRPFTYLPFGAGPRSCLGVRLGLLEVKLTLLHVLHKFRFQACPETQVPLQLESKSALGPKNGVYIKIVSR
Description: To examine effects of test compounds directly on TX synthase (TXS), a different assay system was used. Whereas arachidonic acid (AA) is the substrate for COX, PGH2 is the substrate for TX synthase. To examine directly the effect of these compounds on TXS, exogenous ? elow:
Test compounds at 0 μM, 1 μM, 10 μM and 100 μM (in DMSO) were incubated with undifferentiated U937 cells (6×10^6/ml) for 30 min at 37° C., after which PGH2 (5 μM) was added. After incubation for 10 min, the reaction was terminated by centrifugation and the supernatants were collected and TXB2 production was measured in triplicate by RIA. ANOVA followed by Newman-Keuls multiple comparisons test was used to examine differences between doses and the control values. A statistical significance level of 0.05 was used and differences from control values are indicated by an asterisk (*).

NFκB promoter activity = assay: Inhibition of NFκB promoter activity (β-lactamase reporter) in TNFα-stimulated THP-1 cells; format: cell-based, human; details: 5 h
Description: Human macrophage THP-1 cells, modified to include the β-lactamase reporter gene, were seeded into wells of a 96-well plate (50×10^3 cells/well) in the presence of RPMI 1640 medium (70 μl). TNFα (7.5 ng/ml) and human sera (final concentration of 20%) were added to each well. Plates were incubated for 5 h at 37° C. to allow for NFkB-stimulated β-lactamase production. LiveBLAzer™ FRET B/G Substrate (CCF4-AM) was then added to assay for β-lactamase activity. Once CCFA-AM enters a cell, it is converted to negatively charged CCF4 by endogenous esterases. Excitation of this substrate at 409 nm leads to efficient FRET between the coumarin and fluorescein moieties, resulting in a green fluorescence detectable at 530 nm. The presence of β-lactamase leads to cleavage of CCF4 and results in a loss of FRET, resulting in a robust blue fluorescent signal detectable at 460 nm. Thus, activity of beta-lactamase (a marker of NFkB-promoter activity) is measured as a product to substrate ratio (blue/green fluorescence ratio: 460 nm/530 nm).

Oc1ccc(C23COc4cc(O)ccc4C2O3)cc1 (stereo not drawn) [3,4-epoxy-4′,7-dihydroxyisoflavan]
anti inflammatory activity [1]: shows anti inflammatory activity

Cc1c(O)ccc2c1OCC(c1ccc(O)cc1)C2O (stereo not drawn) [Compound 3]
mean increase in body weight over the 10 days, of the starting weight (female BALB/c mice): 5% | body weight, in words (female BALB/c mice; no vehicle group): all mice maintained body weight | contractile response (logEC50) of the aortic ring to noradrenaline compared with vehicle [2]: significantly inhibited | thromboxane synthase inhibition (TXB2 synthesis after exogenous PGH2), selectivity in words (TX synthase (TXS)): less specific | inhibition of NFκB compared to vehicle control (NFκB promoter activity): significantly (p<0.001) inhibited
